Experimental data as given in patent US12479847B2 (DANA-FARBER CANCER INSTITUTE, INC., priority 2019, dated 2025).
Read-outs that look alike come from different tables or passages of the source.

Legend:
human LRRK2 kinase = human LRRK2 kinase (Homo sapiens, UniProt Q5S007); details: LRRK2, ADP-Glo, ATP 10 μM, 60 minutes at 25° C.
Method: Assay kits from Promega™ Corporation were used according to instructions and adapted as outlined herein. […] The kinase reaction was performed with kinase reaction buffer (40 mM Tris base pH 7.4, 20 mM MgCl2, 0.5 mM dithiothreitol), 0.1 mg/ml bovine serum albumin, distilled H2O). […] In brief, the kinase reactions were started by addition of ATP to the kinase reaction mixture. The resulting mixture was incubated for 60 minutes at 25° C., and then stopped by adding 5 μl of ADP-Glo™ reagent. After incubation at room temperature in the dark for 40 minutes, 10 μl of kinase detection reagent was added per well, and the mixture was incubated for 10 minutes. […] Positive and negative controls were performed in 0.5% DMSO in the presence and absence of LRRK2 kinases. Curve fitting and data presentations were performed using GraphPad Prism version 5.0 (GraphPad Software, Inc.).

panel of 468 kinases [1] = molecular target: T1, panel of 468 kinases (Homo sapiens, UniProt Q8WXR4); test: KINOMEscan (ScanMAX) kinase profiling; assay type: binding; details: MYO3B; 1 μM; read-out: % control
T1 construct: purchased KINOMEscan (ScanMAX) service
T1 sequence (Q8WXR4 1-1341): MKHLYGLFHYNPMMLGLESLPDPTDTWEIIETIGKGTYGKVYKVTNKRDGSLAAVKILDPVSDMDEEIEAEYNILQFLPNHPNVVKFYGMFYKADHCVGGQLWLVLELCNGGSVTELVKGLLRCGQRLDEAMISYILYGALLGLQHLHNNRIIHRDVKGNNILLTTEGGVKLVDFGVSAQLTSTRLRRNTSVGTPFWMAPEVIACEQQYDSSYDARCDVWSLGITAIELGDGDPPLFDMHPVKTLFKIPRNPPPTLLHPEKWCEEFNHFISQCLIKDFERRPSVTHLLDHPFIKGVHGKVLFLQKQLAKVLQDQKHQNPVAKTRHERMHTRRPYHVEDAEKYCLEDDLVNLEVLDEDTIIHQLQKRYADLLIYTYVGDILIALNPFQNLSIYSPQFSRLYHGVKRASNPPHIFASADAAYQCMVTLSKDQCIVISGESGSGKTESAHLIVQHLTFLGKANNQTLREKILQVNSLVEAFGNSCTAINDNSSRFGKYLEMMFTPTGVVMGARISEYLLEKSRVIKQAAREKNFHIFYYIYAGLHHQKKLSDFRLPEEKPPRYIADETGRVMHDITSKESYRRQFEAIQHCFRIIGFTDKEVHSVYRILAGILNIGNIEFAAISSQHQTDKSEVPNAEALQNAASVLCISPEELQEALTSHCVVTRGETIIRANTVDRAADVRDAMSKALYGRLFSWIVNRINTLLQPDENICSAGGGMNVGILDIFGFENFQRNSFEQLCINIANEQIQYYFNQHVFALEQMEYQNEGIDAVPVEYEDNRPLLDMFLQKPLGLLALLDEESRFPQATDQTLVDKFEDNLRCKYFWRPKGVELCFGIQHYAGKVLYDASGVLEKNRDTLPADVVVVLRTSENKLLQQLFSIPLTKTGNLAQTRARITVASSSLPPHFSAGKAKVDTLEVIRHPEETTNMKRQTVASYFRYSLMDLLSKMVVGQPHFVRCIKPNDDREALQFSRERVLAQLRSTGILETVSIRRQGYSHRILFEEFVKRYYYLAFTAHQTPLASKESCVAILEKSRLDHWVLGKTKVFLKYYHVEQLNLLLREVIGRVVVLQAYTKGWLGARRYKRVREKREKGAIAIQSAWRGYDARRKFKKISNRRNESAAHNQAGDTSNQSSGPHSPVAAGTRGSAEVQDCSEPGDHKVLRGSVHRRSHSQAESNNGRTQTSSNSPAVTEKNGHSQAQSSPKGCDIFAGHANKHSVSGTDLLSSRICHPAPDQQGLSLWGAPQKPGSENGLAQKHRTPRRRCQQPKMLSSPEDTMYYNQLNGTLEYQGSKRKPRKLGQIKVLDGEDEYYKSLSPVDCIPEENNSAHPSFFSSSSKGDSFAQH
Method: (§1) The kinase selectivity of inventive compounds 12, 75, and 77 was evaluated by KINOMEscan®. KINOMEscan® (ScanMAX™) analysis was performed against a near comprehensive panel of 468 kinases. The control percentage (% control) for inventive compounds at 1 μM in DMSO was determined by Equation 1: % control=(inventive compound−positive control)/(negative control−positive control)×100%, Equation 1
(§2) wherein the positive control is a compound with a % control value of 0% relative light units (RLU), and the negative control (i.e., DMSO) has % control value of 100% RLU. The enzyme selectivity in the present invention is defined as follows: inventive compounds are considered active for an enzyme when the observed % control is less than 35% (<35%).

panel of 468 kinases [2] = molecular target: T2, panel of 468 kinases (Homo sapiens, UniProt Q14004); test: KINOMEscan (ScanMAX) kinase profiling; assay type: binding; details: CDC2L5; 1 μM; read-out: % control
T2 construct: purchased KINOMEscan (ScanMAX) service
T2 sequence (Q14004 whole entry): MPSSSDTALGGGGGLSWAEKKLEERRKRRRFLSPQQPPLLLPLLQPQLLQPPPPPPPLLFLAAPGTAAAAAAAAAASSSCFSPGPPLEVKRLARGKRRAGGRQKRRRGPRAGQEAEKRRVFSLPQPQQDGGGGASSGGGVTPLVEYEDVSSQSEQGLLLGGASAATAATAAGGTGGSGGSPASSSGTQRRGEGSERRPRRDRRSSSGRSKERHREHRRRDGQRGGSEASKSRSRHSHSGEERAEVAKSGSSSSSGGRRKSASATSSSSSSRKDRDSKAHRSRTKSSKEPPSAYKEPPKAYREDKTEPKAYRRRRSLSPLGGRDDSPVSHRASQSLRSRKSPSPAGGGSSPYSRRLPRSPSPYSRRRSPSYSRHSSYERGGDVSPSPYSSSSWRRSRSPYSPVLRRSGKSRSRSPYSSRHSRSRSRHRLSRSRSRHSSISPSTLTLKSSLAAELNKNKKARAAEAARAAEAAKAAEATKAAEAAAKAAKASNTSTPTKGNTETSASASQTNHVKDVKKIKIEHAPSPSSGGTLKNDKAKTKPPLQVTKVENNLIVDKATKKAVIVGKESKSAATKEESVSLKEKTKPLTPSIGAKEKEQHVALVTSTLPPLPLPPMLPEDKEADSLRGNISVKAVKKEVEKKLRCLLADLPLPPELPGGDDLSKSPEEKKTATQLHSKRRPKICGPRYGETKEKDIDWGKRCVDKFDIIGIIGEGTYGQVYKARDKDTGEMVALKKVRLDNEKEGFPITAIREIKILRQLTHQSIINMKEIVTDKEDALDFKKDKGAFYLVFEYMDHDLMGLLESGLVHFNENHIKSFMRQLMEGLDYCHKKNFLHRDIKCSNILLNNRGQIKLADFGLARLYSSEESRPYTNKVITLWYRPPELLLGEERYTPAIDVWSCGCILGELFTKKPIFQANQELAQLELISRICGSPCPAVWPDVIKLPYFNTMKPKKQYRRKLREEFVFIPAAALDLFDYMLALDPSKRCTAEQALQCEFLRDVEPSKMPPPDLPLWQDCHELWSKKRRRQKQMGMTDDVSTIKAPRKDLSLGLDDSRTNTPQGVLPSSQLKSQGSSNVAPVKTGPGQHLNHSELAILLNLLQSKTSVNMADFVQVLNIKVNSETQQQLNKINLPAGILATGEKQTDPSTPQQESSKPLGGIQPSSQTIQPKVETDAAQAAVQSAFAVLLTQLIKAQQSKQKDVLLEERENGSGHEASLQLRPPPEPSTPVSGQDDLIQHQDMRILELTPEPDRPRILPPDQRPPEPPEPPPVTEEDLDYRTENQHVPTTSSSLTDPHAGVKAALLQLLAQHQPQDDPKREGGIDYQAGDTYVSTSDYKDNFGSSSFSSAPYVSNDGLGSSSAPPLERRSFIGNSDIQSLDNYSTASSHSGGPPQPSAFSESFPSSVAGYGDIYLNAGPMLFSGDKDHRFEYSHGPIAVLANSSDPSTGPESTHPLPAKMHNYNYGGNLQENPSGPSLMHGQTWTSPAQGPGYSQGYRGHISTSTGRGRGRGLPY
Method: as §1, §2

panel of 468 kinases [3] = molecular target: T3, panel of 468 kinases (Homo sapiens, UniProt P42336, H1047Y); test: KINOMEscan (ScanMAX) kinase profiling; assay type: binding; details: PIK3CA(H1047Y); 1 μM; read-out: % control
T3 construct: purchased KINOMEscan (ScanMAX) service
T3 sequence (P42336 whole entry H1047Y): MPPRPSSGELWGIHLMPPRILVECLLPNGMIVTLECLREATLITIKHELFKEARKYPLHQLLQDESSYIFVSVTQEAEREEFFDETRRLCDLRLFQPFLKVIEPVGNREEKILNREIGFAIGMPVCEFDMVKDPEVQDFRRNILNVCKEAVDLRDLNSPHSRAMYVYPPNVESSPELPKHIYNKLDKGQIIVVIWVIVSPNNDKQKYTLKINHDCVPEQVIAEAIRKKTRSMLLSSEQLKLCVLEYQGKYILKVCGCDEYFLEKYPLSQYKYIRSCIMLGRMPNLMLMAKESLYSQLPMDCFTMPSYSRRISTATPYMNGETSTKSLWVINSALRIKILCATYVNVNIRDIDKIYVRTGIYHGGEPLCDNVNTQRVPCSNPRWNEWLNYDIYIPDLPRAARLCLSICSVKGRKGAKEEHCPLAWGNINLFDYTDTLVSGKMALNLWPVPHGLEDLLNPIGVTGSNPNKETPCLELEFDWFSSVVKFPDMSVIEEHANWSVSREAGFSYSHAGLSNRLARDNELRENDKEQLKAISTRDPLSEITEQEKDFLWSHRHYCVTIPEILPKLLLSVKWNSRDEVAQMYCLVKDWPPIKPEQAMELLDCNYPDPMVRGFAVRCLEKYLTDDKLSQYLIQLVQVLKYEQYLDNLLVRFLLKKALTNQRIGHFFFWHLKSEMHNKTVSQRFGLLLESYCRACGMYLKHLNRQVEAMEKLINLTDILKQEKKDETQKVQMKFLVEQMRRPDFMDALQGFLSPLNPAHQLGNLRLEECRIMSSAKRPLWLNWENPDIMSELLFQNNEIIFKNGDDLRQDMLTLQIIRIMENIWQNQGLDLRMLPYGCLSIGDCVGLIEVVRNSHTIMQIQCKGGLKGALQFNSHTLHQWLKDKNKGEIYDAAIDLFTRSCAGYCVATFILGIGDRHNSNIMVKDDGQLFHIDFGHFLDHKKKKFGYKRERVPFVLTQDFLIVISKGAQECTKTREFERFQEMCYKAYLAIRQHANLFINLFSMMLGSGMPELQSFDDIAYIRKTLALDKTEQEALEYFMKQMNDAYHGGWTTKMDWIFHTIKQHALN
Method: as §1, §2

panel of 468 kinases [4] = molecular target: T4, panel of 468 kinases (Homo sapiens, UniProt P24723); test: KINOMEscan (ScanMAX) kinase profiling; assay type: binding; details: PRKCH; 1 μM; read-out: % control
T4 construct: purchased KINOMEscan (ScanMAX) service
T4 sequence (P24723 whole entry): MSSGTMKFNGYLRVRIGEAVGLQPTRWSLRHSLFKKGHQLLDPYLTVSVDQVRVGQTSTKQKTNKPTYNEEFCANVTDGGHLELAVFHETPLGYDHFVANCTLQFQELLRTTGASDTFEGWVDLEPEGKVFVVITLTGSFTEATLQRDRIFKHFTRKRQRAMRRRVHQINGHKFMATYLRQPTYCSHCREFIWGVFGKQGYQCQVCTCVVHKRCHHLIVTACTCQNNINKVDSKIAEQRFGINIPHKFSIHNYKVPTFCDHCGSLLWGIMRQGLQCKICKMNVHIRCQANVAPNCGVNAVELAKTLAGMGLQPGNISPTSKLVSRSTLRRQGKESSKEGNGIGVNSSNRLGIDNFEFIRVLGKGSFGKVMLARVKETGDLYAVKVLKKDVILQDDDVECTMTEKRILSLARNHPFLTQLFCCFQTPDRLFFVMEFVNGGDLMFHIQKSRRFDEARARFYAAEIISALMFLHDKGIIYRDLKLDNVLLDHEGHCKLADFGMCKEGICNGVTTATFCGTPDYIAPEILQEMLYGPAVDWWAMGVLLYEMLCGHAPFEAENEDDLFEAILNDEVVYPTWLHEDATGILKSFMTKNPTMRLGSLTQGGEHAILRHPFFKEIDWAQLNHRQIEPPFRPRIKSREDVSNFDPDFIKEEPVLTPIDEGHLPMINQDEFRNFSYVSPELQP
Method: as §1, §2

panel of 468 kinases [5] = molecular target: T5, panel of 468 kinases (Homo sapiens, UniProt P11802); test: KINOMEscan (ScanMAX) kinase profiling; assay type: binding; details: 1 μM, read-out: % control
T5 construct: purchased KINOMEscan (ScanMAX) service
T5 sequence (P11802 whole entry): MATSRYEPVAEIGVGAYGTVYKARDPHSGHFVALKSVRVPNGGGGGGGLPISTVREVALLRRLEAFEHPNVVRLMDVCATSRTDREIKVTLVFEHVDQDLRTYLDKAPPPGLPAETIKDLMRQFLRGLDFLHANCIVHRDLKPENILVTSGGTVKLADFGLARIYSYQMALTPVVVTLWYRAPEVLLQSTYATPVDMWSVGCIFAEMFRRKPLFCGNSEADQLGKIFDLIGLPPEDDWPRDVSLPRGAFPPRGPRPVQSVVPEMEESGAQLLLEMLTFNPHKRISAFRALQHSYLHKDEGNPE
Method: as §1, §2

panel of 468 kinases [6] = molecular target: T6, panel of 468 kinases (Homo sapiens, UniProt P00533, L858R); test: KINOMEscan (ScanMAX) kinase profiling; assay type: binding; details: EGFR(L858R); 1 μM; read-out: % control
T6 construct: purchased KINOMEscan (ScanMAX) service
T6 sequence (P00533 25-1210 L858R): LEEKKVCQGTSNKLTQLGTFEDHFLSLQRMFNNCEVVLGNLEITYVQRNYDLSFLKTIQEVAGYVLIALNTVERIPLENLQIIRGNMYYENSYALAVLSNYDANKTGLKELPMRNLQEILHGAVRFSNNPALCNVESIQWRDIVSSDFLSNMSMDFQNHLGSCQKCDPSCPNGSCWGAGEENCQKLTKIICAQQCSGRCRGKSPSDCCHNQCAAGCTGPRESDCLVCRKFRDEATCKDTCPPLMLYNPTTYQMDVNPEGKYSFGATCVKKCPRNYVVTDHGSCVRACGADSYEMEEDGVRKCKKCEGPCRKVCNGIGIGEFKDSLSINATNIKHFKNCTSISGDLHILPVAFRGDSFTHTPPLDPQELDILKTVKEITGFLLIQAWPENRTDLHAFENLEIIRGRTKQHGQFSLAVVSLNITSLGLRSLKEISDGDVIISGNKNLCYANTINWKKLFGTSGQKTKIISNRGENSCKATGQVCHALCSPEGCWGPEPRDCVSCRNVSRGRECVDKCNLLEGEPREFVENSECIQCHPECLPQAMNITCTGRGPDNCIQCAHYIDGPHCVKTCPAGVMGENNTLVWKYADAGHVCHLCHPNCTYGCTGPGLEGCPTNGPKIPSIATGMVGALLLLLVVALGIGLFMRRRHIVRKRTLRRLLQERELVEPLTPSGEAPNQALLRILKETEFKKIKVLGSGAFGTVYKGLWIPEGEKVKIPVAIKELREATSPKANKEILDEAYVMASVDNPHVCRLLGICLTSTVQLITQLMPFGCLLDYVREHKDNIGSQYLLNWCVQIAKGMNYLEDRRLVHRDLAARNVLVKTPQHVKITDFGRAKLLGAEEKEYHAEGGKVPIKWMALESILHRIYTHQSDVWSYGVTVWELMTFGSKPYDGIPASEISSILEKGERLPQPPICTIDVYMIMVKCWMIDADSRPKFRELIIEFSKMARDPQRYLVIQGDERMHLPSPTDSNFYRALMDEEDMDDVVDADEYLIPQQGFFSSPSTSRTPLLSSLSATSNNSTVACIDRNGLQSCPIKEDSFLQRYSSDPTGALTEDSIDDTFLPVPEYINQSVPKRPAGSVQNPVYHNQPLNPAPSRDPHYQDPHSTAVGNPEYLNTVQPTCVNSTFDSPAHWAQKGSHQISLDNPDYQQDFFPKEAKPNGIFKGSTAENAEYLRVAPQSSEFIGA
Method: as §1, §2

panel of 468 kinases [7] = molecular target: T7, panel of 468 kinases (Homo sapiens, UniProt Q9HBY8); test: KINOMEscan (ScanMAX) kinase profiling; assay type: binding; details: SGK2; 1 μM; read-out: % control
T7 construct: purchased KINOMEscan (ScanMAX) service
T7 sequence (Q9HBY8 1-367): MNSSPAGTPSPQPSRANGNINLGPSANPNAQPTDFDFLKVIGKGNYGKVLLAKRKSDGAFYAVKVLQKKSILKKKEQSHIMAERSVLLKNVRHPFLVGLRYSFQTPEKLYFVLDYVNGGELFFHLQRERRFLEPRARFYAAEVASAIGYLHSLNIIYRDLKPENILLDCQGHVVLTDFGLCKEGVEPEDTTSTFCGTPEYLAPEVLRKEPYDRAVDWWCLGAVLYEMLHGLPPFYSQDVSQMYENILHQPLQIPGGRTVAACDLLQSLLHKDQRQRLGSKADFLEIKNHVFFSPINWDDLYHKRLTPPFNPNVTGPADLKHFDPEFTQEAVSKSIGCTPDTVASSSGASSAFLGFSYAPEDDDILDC
Method: as §1, §2

Row | Compound | IC50 (human LRRK2 kinase) [nM] | remaining binding at 1 µM (panel of 468 kinases [1]) [%] | remaining binding at 1 µM (panel of 468 kinases [2]) [%] | remaining binding at 1 µM (panel of 468 kinases [3]) [%] | remaining binding at 1 µM (panel of 468 kinases [4]) [%] | remaining binding at 1 µM (panel of 468 kinases [5]; CDK4-cyclinD1) [%] | remaining binding at 1 µM (panel of 468 kinases [5]; CDK4-cyclinD3) [%] | remaining binding at 1 µM (panel of 468 kinases [5]; CDK4) [%] | remaining binding at 1 µM (panel of 468 kinases [6]) [%] | remaining binding at 1 µM (panel of 468 kinases [7]) [%]
1 | CNc1nc(Nc2ccc(S(=O)(=O)N3CCC(N4CCOCC4)CC3)cc2OC)nc2[nH]cc(Cl)c12 [Compound 12, 5-chloro-N2-(2-methoxy-4-((4-morpholinopiperidin-1-yl)sulfonyl)phenyl)-N4-methyl-7H-pyrrolo[2,3-d]pyrimidine-2,4-diamine] | < 10 | 95 | 54 | 64 | 97 | 74 | 100 | 68 | 100 | 95
2 | CNc1nc(Nc2ccc(P3(=O)CCN(C4CCOCC4)CC3)cc2OC)nc2[nH]cc(Cl)c12 [Compound 77, 4-(4-((5-chloro-4-(methylamino)-7H-pyrrolo[2,3-d]pyrimidin-2-yl)amino)-3-methoxyphenyl)-1-(tetrahydro-2H-pyran-4-yl)-1,4-azaphosphinane 4-oxide] | < 10 | 100 | 55 | 73 | 100 | 87 | 100 | 71 | 76 | 87
3 | CNc1nc(Nc2ccc(C(=O)N3CCC(N4CCOCC4)CC3)c3c2OCO3)nc2[nH]cc(Cl)c12 [Compound 75, (7-((5-chloro-4-(methylamino)-7H-pyrrolo[2,3-d]pyrimidin-2-yl)amino)benzo[d][1,3]dioxol-4-yl)(4-morpholinopiperidin-1-yl)methanone] | < 10 | 100 | 57 | 68 | 91 | 81 | 100 | 80 | 100 | 37
